Values quoted from earlier work as cited in PubChem BioAssay AID1259410 (Chemical Carcinogenesis Research Information System (CCRIS), 2018).

Tested on: rodent tumor promotion studies, tumor incidence
Assay: CCRIS tumor promotion studies
Details: Route [Carcinogen]: DERMAL, Route [Promoter]: DERMAL, Species: MOUSE

CCCCCCCCCCCCCC(=O)O[C@@H]1[C@@H](C)[C@@]2(O)[C@@H](C=C(CO)C[C@]3(O)C(=O)C(C)=C[C@@H]23)[C@@H]2C(C)(C)[C@]12OC(C)=O
outcome (Carcinogen: 15,16-DIHYDRO-11-METHYLCYCLOPENTA[A]PHENANTHREN-17-ONE, 892-17-1, Doses [Carcinogen]: 1632 NMOL IN 100 µL TOLUENE ONCE, Doses [Promoter]: 0, 2 UG IN 50 µL ACETONE 2/WK FOR 19 WK BEGINNING 1 WK POST CARCINOGEN TREATMENT (STUDY DURATION: 20 WK), Strain/Sex: SKH/HR-1/MALE): skin: papilloma | outcome (Carcinogen: (+/-)-R,11-T-12-DIHYDROXY-T-13,14-EPOXY-11,12,13,14-TETRAHYDRODIBENZO[A,L]PYRENE, 159812-26-7, Doses [Carcinogen]: 1.33, 4, 12 NMOL IN 100 ML ACETONE ONCE, Doses [Carcinogen]: 1.33, 4, 12 NMOL IN 100 ML ACETONE ONCE, Doses [Promoter]: 1.62 NMOL IN 100 ML ACETONE 2/WK FOR 28 WK BEGINNING 1 WK POST CARCINOGEN DOSE (STUDY DURATION: 30 WK), Strain/Sex: SENCAR/FEMALE): skin: tumor | outcome (Carcinogen: (+/-)-R-11,T-12-DIHYDROXY-C-13,14-EPOXY-11,12,13,14-TETRAHYDRODIBENZO[A,L]PYRENE, 159812-27-8, Doses [Carcinogen]: 1.33, 4, 12 NMOL IN 100 ML ACETONE ONCE, Doses [Carcinogen]: 1.33, 4, 12 NMOL IN 100 ML ACETONE ONCE, Doses [Promoter]: 1.62 NMOL IN 100 ML ACETONE 2/WK FOR 28 WK BEGINNING 1 WK POST CARCINOGEN DOSE (STUDY DURATION: 30 WK), Strain/Sex: SENCAR/FEMALE): skin: tumor | outcome (Carcinogen: (+/-)-TRANS-1,2-DIHYDRO-1,2-DIHYDROXY-5-METHYLCHRYSENE, 96741-20-7, Doses [Carcinogen]: 33, 100 NMOL IN 0.1 ML ACETONE ONCE, Doses [Promoter]: 2.5 UG IN 0.1 ML ACETONE 3/WK FOR 25 WK BEGINNING 10 D POST INITIATION (STUDY DURATION: 27 WK), Strain/Sex: CD-1/FEMALE): skin: tumors | outcome (Carcinogen: (+/-)-TRANS-1,2-DIHYDROXY-ANTI-3,4-EPOXY-1,2,3,4-TETRAHYDRO-5-METHYLCHRYSENE, 96790-39-5, Doses [Carcinogen]: 33, 100 NMOL IN 0.1 ML ACETONE ONCE, Doses [Promoter]: 2.5 UG IN 0.1 ML ACETONE 3/WK FOR 25 WK BEGINNING 10 D POST INITIATION (STUDY DURATION: 27 WK), Strain/Sex: CD-1/FEMALE): skin: tumors | outcome (Carcinogen: (+/-)-TRANS-7,8-DIHYDRO-7,8-DIHYDROXY-5-METHYLCHRYSENE, 96741-21-8, Doses [Carcinogen]: 33, 100 NMOL IN 0.1 ML ACETONE ONCE, Doses [Promoter]: 2.5 UG IN 0.1 ML ACETONE 3/WK FOR 25 WK BEGINNING 10 D POST INITIATION (STUDY DURATION: 27 WK), Strain/Sex: CD-1/FEMALE): skin: tumors | outcome (Carcinogen: ANTI-1,2-DIHYDROXY-3,4-EPOXY-1,2,3,4-TETRAHYDRO-5,6-DIMETHYLCHRYSENE, 139347-89-0, Doses [Carcinogen]: 33, 100, 400 NMOL IN 0.1 ML ACETONE ONCE, Doses [Carcinogen]: 33, 100, 400 NMOL IN 0.1 ML ACETONE ONCE, Doses [Promoter]: 0, 2.5 UG IN 0.1 ML ACETONE 3/WK FOR 20 WK BEGINNING 10 D POST CARCINOGEN DOSE (STUDY DURATION: 20 WK), Strain/Sex: CD-1/FEMALE): skin: tumor | outcome (Carcinogen: ANTI-4,3-DIHYDROXY-2,1-EPOXY-4,3,2,1-TETRAHYDROBENZO[C]PHENANTHRENE, 75443-72-0, Doses [Carcinogen]: 100, 400 NMOL IN 0.1 ML ACETONE ONCE, Doses [Promoter]: 0, 2.5 UG IN 0.1 ML ACETONE 3/WK FOR 20 WK BEGINNING 10 D POST CARCINOGEN DOSE (STUDY DURATION: 20 WK), Strain/Sex: CD-1/FEMALE): skin: tumor | outcome (Carcinogen: BENZO[A]PYRENE, 50-32-8, Doses [Carcinogen]: 0, 2.52, 12.6, 50.5, 101 UG IN ACETONE ONCE, Doses [Carcinogen]: 0, 2.52, 12.6, 50.5, 101 UG IN ACETONE ONCE, Doses [Promoter]: 0, 2 UG IN ACETONE 2/WK FOR 52 WK (STUDY DURATION: 1 YR), Strain/Sex: SENCAR/FEMALE): skin: papilloma, carcinoma | outcome (Carcinogen: BENZO[A]PYRENE, 50-32-8, Doses [Carcinogen]: 0, 2.52, 12.6, 50.5, 101 UG IN ACETONE ONCE, Doses [Carcinogen]: 0, 2.52, 12.6, 50.5, 101 UG IN ACETONE ONCE, Doses [Promoter]: 0, 2 UG IN ACETONE 2/WK FOR 52 WK (STUDY DURATION: 1 YR), Strain/Sex: SENCAR/MALE): skin: papilloma, carcinoma | outcome (Carcinogen: BENZO[A]PYRENE, 50-32-8, Doses [Carcinogen]: 20, 100 NMOL IN 100 µL ACETONE ONCE, Doses [Promoter]: 3.24 NMOL/100 µL ACETONE 2/WK BEGINNING 2 WK POST CARCINOGEN DOSE AND CONTINUING FOR 24 WK (STUDY DURATION: 27 WK), Strain/Sex: SENCAR/FEMALE): skin: tumor | outcome (Carcinogen: BENZO[A]PYRENE, 50-32-8, Doses [Carcinogen]: 33.3, 100, 300 NMOL IN 100 µL ACETONE ONCE, Doses [Carcinogen]: 33.3, 100, 300 NMOL IN 100 µL ACETONE ONCE, Doses [Promoter]: 3.24 NMOL/100 µL ACETONE ONCE 1 WK POST CARCINOGEN DOSE THEN 2/WK BEGINNING 3 WK LATER AND CONTINUING FOR 11 WK (STUDY D, Strain/Sex: SENCAR/FEMALE): skin: tumor
